According to patent publication US20150191484A1, “NOVEL COMPOUNDS HAVING A TETRACYCLIC IRIDOID SKELTON AND AN ANTI-TRYPANOSOMAL AGENT COMPRISING THE SAME AS AN ACTIVE INGREDIENT” (NATIONAL UNIVERSITY CORPORATION TOKYO MEDICAL AND DENTAL …, priority 2014, published 2015):
“Also recorded” adds a separate entry of the source.

Columns and labels:
[1] = test system: GUTat 3.1 strain of the bloodstream forms of T. b. brucei parasites; assay: Alamar Blue assay (trypanocidal activity); type: cell-based, Trypanosoma brucei brucei
Description: (§1) The GUTat 3.1 strain of the bloodstream forms of T. b. brucei parasites was used for this study. Parasites were cultured in vitro according to the conditions established by Yabu et al, 1998.
(§2) Parasites were used when they reached a confluent concentration of 1×10^6 parasites/ml. Estimation of parasitemia was done with the Neubauer's counting chamber. Parasites were diluted to a concentration of 3×10^5 parasites/ml with HMI-9 medium and used for the various experiments.
The Alamar Blue assay was carried out in a 96-well plate. About 1.5×10^4 Parasites were seeded with varied concentrations of the Morinda lucida crude extract, ranging from as low as 0.78 μg/ml to as high as 200 μg/ml, in a ratio of 1:1 in 100 μl volume per well. Berberine, a compound known as anti-trypanocidal agent, was used as a positive control. […] The parasites were incubated with the plant extracts for 24 hours at 37° C. and under 5% CO2. After 24 hours, 10% Alamar Blue dye was added to each well and re-incubated for another 24 hours under the same conditions but in darkness. After a total of 48 hours, the plate was read for absorbance at 540 nm using the TECAN Sunrise Wako Spectrophotometer. An Absorbance-concentration (extract) curve was drawn and the IC50 value of the plant extract was extrapolated. Alamar Blue assay was also performed on the fractions and compounds purified from Morinda Lucida to determine their IC50 values. The IC50 values obtained were compared with that of the positive control and trypanocidal activity determined.

[2] = MTT cytotoxicity assay, NB1RGB; type: cell-based, human; conditions: human, NB1RGB normal fibroblast cells; NB1RGB normal fibroblast, 48 h, MTT
Description: (§3) The cytotoxic activity of natural products against mammalian cells is an important point in the search for active compounds with biological activity. […] In order to confirm the selective and potent anti-trypanosomal activity of ML-2-2 and ML-2-3, we examined their cytotoxicity in a panel of human cell lines including two human fibroblastic and 8 human cancer-derived cell lines. Cells were seeded in 96-well microplates and incubated with ML-2-2 and ML-2-3 for 48 h at 37° C. in a 5% CO2 humidified incubator. The viabilities of cells were determined with the MTT (3-(4,5-dimethylthiazol-2-yl)-2-5-diphenyltetrazolium bromide) assay. The selectivity index (SI) was determined using the following equation: IC50 against human cells/IC50 against T. brucei. The IC50 values of ML-2-3 were higher than those of ML-2-2 in all the cell lines examined. […] The SI of ML-2-2 indicates values below 1.00 in most cell lines. On the other hand, SI values of ML-2-3 were much higher than those of ML-2-2 in all tested cell lines.

[3] = test system: NB1RGB (normal fibroblast); assay: MTT cytotoxicity assay, NB1RGB; type: cell-based, human; conditions: IC50 against NB1RGB / IC50 against T. brucei
Description: as §3

[4] = MTT cytotoxicity assay, U937; type: cell-based, human; conditions: human, U937 leukemia cells; U937 leukemia, 48 h, MTT
Description: as §3

U937 (leukemia) = assay: MTT cytotoxicity assay, U937; type: cell-based, human; conditions: IC50 against U937 / IC50 against T. brucei
Description: as §3

Trypanosoma cells [5] = assay: Nexin apoptosis assay (FACS); type: cell-based, Trypanosoma brucei brucei
Description: as §1, §2
This assay was performed to detect both Phosphatidylserine (PS) signal and fracture of nuclear membraneas markers of apoptosis. Seeding and incubation of parasites with plant materials (extracts, fractions and compounds) were done under the same conditions in Alamar Blue assay. […] The contents of the wells were then subjected to FACS analysis using, the Millipore guava easyCyte 5HT FACS machine for the sorting and estimation of apoptotic parasites according to the manufacturer's instructions.

Trypanosoma cells [6] = assay: Cell cycle assay (FACS); type: cell-based, Trypanosoma brucei brucei
Description: as §1, §2
This assay was performed to investigate any abnormal change in the parasites' cell cycle which may be caused by extracts/compounds with trypanocidal effect. […] The parasites were collected and transferred into 15 ml centrifuge tubes and centrifuged at 1700 rpm for 10 min, after which the supernatant was discarded. The pelleted parasites were re-suspended in 5 ml PBS solution and vortexed to form a suspension. The parasite suspension was centrifuged at 1700 rpm for 10 min and the supernatant discarded. The pelleted parasites were re-suspended in 1.5 ml of PBS and vortexed thoroughly before adding 3.5 ml absolute EtOH gradually to a final volume of 5 ml 70% EtOH. The parasites were then fixed at −20° C. for 1 h. The cell suspension was then centrifuged at 1700 rpm for 10 min and the supernatant discarded. Pelleted parasites were re-suspended in 200 μl of Guava Cell Cycle reagent, which has Propidium Iodide as its main constituent and incubated at room temperature for 30 min. The solution was transferred to wells of 96-well plate. The well contents were then subjected to FACS analysis using the Millipore guava easyCyte 5HT FACS machine, for the sorting of parasites according to the manufacturer's instructions.

Trypanosoma cells [7] = assay: Immunohistochemistry / immuno-fluorescence analysis (anti-α tubulin, DAPI); type: cell-based, Trypanosoma brucei brucei; conditions: 15 μM (four times of IC50)
Description: as §1, §2
Immunohistochemistry was performed to detect any morphological or phenotypic changes which may be caused by extracts/compounds with trypanocidal effect. The initial steps of immunohistochemistry are the same as that for the Cell Cycle Assay. After fixing the parasites at −20° C. for an hour, 500 μl of the fixed parasites were transferred to an 8-chamber slide. The parasites were incubated at 4° C. overnight to allow the fixed parasites to adhere to the slide surface. The 70% EtOH was then discarded completely. 500 μl of PBS was added to each chamber and incubated for 5 min, after which PBS was discarded. The parasites were further washed with 500 μl of PBST (0.01% Triton X 100 in PBS) for 5 min and the washing solution discarded. 500 μl of blocking reagent (3% BSA in PBST) was added to the chamber and incubated for 30 min at room temperature, after which the blocking reagent was discarded. Each chamber was filled with 500 μl Anti-α tubulin antibody and incubated for 1 hour. The antibody was then discarded and the parasites were incubated with 500 μl of DAPI (5 μg/ml DAPI in PBS) for 10 min in the dark. The wells were washed twice with 500 μl of PBS and once with 500 μl of PBST. The 8-chamber block was detached from the slide and a few drops of parmafluor mounting reagent were put on the slide. The slide was covered carefully with a cover slip. The covered slide was allowed to dry in the dark and the edge of the cover slip sealed with clear nail varnish. The slide was observed under the Olympus fluorescent microscope.

COc1cc(/C=C2/C(=O)O[C@]34C=C[C@@H]5C(C(=O)O)=CO[C@H](O[C@@H]23)[C@@H]54)ccc1O [ML-2-3, (3aS,4aR,4a^1S,7aS,9aS,3E)-3-(4-hydroxy-3-methoxybenzylidene)-2-oxo-2,3,3a,4a,4a^1,7a-hexahydro-1,4,5-trioxadicyclopenta[a,hi]indene-7-carboxylic acid]
IC50 ([1]; T. b. brucei, Alamar Blue, 48 h, read-out: IC50 of anti-trypanosomal activity): 3.75 µM
inhibition of the growth of Trypanosoma brucei brucei (in words) ([1]; in vitro): the most potent in vitro activity
IC50 at 48 h [2]: 37.4 µM
SI (selectivity index) [3]: 9.96
IC50 at 48 h [4]: 12 µM
SI (selectivity index) (U937 (leukemia)): 3.21
proportion of cells at early stage of apoptosis (Trypanosoma cells [5]; 5 μM, 3 hours incubation): 2.5%
proportion of cells at early stage of apoptosis (Trypanosoma cells [5]; 5 μM, 12 hours of incubation): about 10%
incubation time at which significant increase in proportion of late stage apoptotic cells was observed (Trypanosoma cells [5]; 5 μM, time course 0, 3, 6, 9 and 12 hours): around 6 hours
induction of apoptosis (Trypanosoma cells [5]; 6.25 μM, 24-hour incubation): induced strong apoptosis
early stage apoptotic cells (Trypanosoma cells [5]; 6.25 μM, 24-hour incubation, negative control 0.2%): 7.8%
late stages apoptotic cells (Trypanosoma cells [5]; 6.25 μM, 24-hour incubation, negative control none): 4.4%
induction of apoptosis in Trypanosoma cells (Trypanosoma cells [5]; same concentration (6 μM)): strongly induced apoptosis
cells with low DNA content (sub-G1 phase) (Trypanosoma cells [6]; 15 μM): a large proportion of cells with low DNA content were detected as sub-G1 phase
numbers of cells in the G2 and M phase of cell cycle (Trypanosoma cells [6]; four times of IC50: 15 μM ML-2-3, 5 μM ML-2-2, 24 hours): significant decrease; also recorded: caused alteration of G2/M phase
expression of α-tubulin (Trypanosoma cells [7]): significantly suppressed
flagellum phenotype (Trypanosoma cells [7]): no flagellum phenotype
nuclear fragmentation (Trypanosoma cells [7]): clearly induced the fragmented nuclei
